Results published in PubChem BioAssay (NCI).
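Compound exposure: 48 hours, 5 concentrations, 96-well plates. TGI: total growth inhibition.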

How the values were obtained:
Experiment in all cases: NCI tumour cell line growth inhibition, 48 h
NCI/ADR-RES ovarian = tested on: NCI/ADR-RES ovarian
SNB-75 CNS = tested on: SNB-75 CNS
PC-3 prostate = tested on: PC-3 prostate
SF-268 CNS = tested on: SF-268 CNS
UACC-257 melanoma = tested on: UACC-257 melanoma
MDA-MB-435 = tested on: MDA-MB-435
BT-549 breast = tested on: BT-549 breast
OVCAR-3 ovarian = tested on: OVCAR-3 ovarian
MOLT-4 leukemia = tested on: MOLT-4 leukemia
OVCAR-5 ovarian = tested on: OVCAR-5 ovarian
A498 renal = tested on: A498 renal
OVCAR-4 ovarian = tested on: OVCAR-4 ovarian
KM12 colon = tested on: KM12 colon
T-47D breast = tested on: T-47D breast
SK-MEL-5 melanoma = tested on: SK-MEL-5 melanoma
HCC-2998 colon = tested on: HCC-2998 colon
A549 NSCLC = tested on: A549 NSCLC
SF-295 CNS = tested on: SF-295 CNS
OVCAR-8 ovarian = tested on: OVCAR-8 ovarian
HCT-116 colon = tested on: HCT-116 colon
MALME-3M melanoma = tested on: MALME-3M melanoma
U251 CNS = tested on: U251 CNS
SF-539 CNS = tested on: SF-539 CNS
LOX IMVI melanoma = tested on: LOX IMVI melanoma
M14 melanoma = tested on: M14 melanoma
EKVX NSCLC = tested on: EKVX NSCLC
MDA-MB-231 breast = tested on: MDA-MB-231 breast
MDA-N = tested on: MDA-N
NCI-H226 lung = tested on: NCI-H226 lung
K-562 leukemia = tested on: K-562 leukemia
RXF 393 renal = tested on: RXF 393 renal
CCRF-CEM leukemia = tested on: CCRF-CEM leukemia
UACC-62 melanoma = tested on: UACC-62 melanoma
ACHN renal = tested on: ACHN renal
RPMI-8226 leukemia = tested on: RPMI-8226 leukemia
DU-145 prostate = tested on: DU-145 prostate
SW-620 colon = tested on: SW-620 colon
SN12C renal = tested on: SN12C renal
HL-60(TB) leukemia = tested on: HL-60(TB) leukemia
SR leukemia = tested on: SR leukemia
IGROV1 ovarian = tested on: IGROV1 ovarian
HOP-62 NSCLC = tested on: HOP-62 NSCLC
HS 578T breast = tested on: HS 578T breast
SK-OV-3 ovarian = tested on: SK-OV-3 ovarian
SK-MEL-2 melanoma = tested on: SK-MEL-2 melanoma
NCI-H23 lung = tested on: NCI-H23 lung
CAKI-1 renal = tested on: CAKI-1 renal
UO-31 renal = tested on: UO-31 renal
HT29 colon = tested on: HT29 colon
TK-10 renal = tested on: TK-10 renal
SK-MEL-28 melanoma = tested on: SK-MEL-28 melanoma
HOP-92 NSCLC = tested on: HOP-92 NSCLC
786-0 renal = tested on: 786-0 renal
COLO 205 colon = tested on: COLO 205 colon
NCI-H460 lung = tested on: NCI-H460 lung
HCT-15 colon = tested on: HCT-15 colon
NCI-H522 lung = tested on: NCI-H522 lung
SNB-19 CNS = tested on: SNB-19 CNS
MCF7 breast = tested on: MCF7 breast

Structure (SMILES): COC(=O)C1(Cc2ccc3c(c2)CCC3)Cc2ccc3c(c2C1=O)CCC3 (centres undefined)
- TGI (NCI/ADR-RES ovarian): 13.8 µM
- TGI (SNB-75 CNS): > 55.5 µM
- TGI (PC-3 prostate): > 95.2 µM
- TGI (SF-268 CNS): > 100 µM
- TGI (UACC-257 melanoma): > 100 µM
- TGI (MDA-MB-435): 6.13 µM
- TGI (BT-549 breast): > 46.1 µM
- TGI (OVCAR-3 ovarian): 52.8 µM
- TGI (MOLT-4 leukemia): 36.5 µM
- TGI (OVCAR-5 ovarian): > 100 µM
- TGI (A498 renal): 46.5 µM
- TGI (OVCAR-4 ovarian): > 66.7 µM
- TGI (KM12 colon): > 100 µM
- TGI (T-47D breast): > 68.6 µM
- TGI (SK-MEL-5 melanoma): 28.2 µM
- TGI (HCC-2998 colon): 44.5 µM
- TGI (A549 NSCLC): > 100 µM
- TGI (SF-295 CNS): > 72.6 µM
- TGI (OVCAR-8 ovarian): > 100 µM
- TGI (HCT-116 colon): > 100 µM
- TGI (MALME-3M melanoma): > 63.8 µM
- TGI (U251 CNS): > 69.6 µM
- TGI (SF-539 CNS): 34.8 µM
- TGI (LOX IMVI melanoma): > 65.3 µM
- TGI (M14 melanoma): 33.1 µM
- TGI (EKVX NSCLC): > 100 µM
- TGI (MDA-MB-231 breast): > 87.6 µM
- TGI (MDA-N): 5.78 µM
- TGI (NCI-H226 lung): > 87.2 µM
- TGI (K-562 leukemia): > 100 µM
- TGI (RXF 393 renal): 22.7 µM
- TGI (CCRF-CEM leukemia): > 83.1 µM
- TGI (UACC-62 melanoma): > 48.5 µM
- TGI (ACHN renal): > 100 µM
- TGI (RPMI-8226 leukemia): 52.7 µM
- TGI (DU-145 prostate): > 100 µM
- TGI (SW-620 colon): > 71.1 µM
- TGI (SN12C renal): > 100 µM
- TGI (HL-60(TB) leukemia): 8.83 µM
- TGI (SR leukemia): 7.76 µM
- TGI (IGROV1 ovarian): > 100 µM
- TGI (HOP-62 NSCLC): > 100 µM
- TGI (HS 578T breast): 16.4 µM
- TGI (SK-OV-3 ovarian): > 100 µM
- TGI (SK-MEL-2 melanoma): 15.4 µM
- TGI (NCI-H23 lung): > 71.6 µM
- TGI (CAKI-1 renal): > 100 µM
- TGI (UO-31 renal): > 100 µM
- TGI (HT29 colon): > 34.8 µM
- TGI (TK-10 renal): > 90.1 µM
- TGI (SK-MEL-28 melanoma): > 100 µM
- TGI (HOP-92 NSCLC): 54 µM
- TGI (786-0 renal): > 91.3 µM
- TGI (COLO 205 colon): 9.16 µM
- TGI (NCI-H460 lung): > 63.9 µM
- TGI (HCT-15 colon): > 40.5 µM
- TGI (NCI-H522 lung): 18.8 µM
- TGI (SNB-19 CNS): > 100 µM
- TGI (MCF7 breast): > 20.4 µM
